Laboratory results: publication PMC8945229, “Development and Biological Characterization of a Novel Selective TrkA Agonist with Neuroprotective Properties against Amyloid Toxicity” (Biomedicines, 2022)

Legend:
[1] = target: T1, TrkA (Rattus norvegicus, UniProt P35739); test: TrkA phosphorylation in PC12 cells (IP with TrkA antibody, Western blot against phosphorylated Tyrosine); assay type: cell-based
T1 construct: we used PC12 cells, a cell line that express TrkA and p75^NTR; host or cells: PC12
Procedure: For immunoprecipitation experiments PC12 or HEK293T, cells were used when at 70–80% confluent. […] Cells were then lysed in Pierce™ IP Lysis Buffer (87788, Thermo Fischer Scientific, Waltham, MA, USA) containing proteases (539138, Calbiochem, Darmstadt, Germany) and phosphatase inhibitors (524629, Calbiochem, Darmstadt, Germany). Lysates were then immunoprecipitated overnight at 4 °C with TrkA antibody (1:100, 06-574, Sigma-Aldrich, St. Louis, MO, USA) (Table S1) or p75^NTR antibody (1:100, ab6172, Abcam plc., Cambridge, UK) followed by 4 h incubation with protein G-plus agarose beads (sc-2002, Santa Cruz Biotechnology, Inc., Dallas, TX, USA). Beads were then collected, washed 3X with lysis buffer, resuspended in SDS loading buffer and subjected to Western blot against phosphorylated Tyrosine (1:1000, BAM1676, R&D Systems, Inc., Minneapolis, MN, USA) or Traf6 antibody (1:2000, ab33915, Abcam, plc., Cambridge, UK). Whole cell lysates were subjected to Western blot against TrkA (1:1000, 06-574, Sigma-Aldrich, St. Louis, MO, USA), phosphorylated TrkB (1:1000, ABN1381, Sigma-Aldrich, St. Louis, MO, USA), phosphorylated TrkC (1:1000, STJ90960, St John’s Laboratory, Ltd., London, UK), TrkB (1:1000, 07-225-I, Sigma-Aldrich, St. Louis, MO, USA), TrkC (1:1000, C44H5, Cell Signaling Technology, Danvers, MA, USA), p75 (1:1000, 839701, Biolegend, Inc., San Diego, CA, USA), Traf6 (1:2000, ab33915, Abcam, plc., Cambridge, UK) phosphorylated Akt (1:1000, 9721S, Cell Signaling Technology, Danvers, MA, USA), phosphorylated Erk1/2 (1:1000, 9101S, Cell Signaling Technology, Danvers, MA, USA), total Akt (1:1000, 4691S Cell Signaling Technology, Danvers, MA, USA) and total Erk1/2 (1:1000, 4695S, Cell Signaling Technology, Danvers, MA, USA).

[2] = test system: γ-secretase; test: γ-secretase activity / APP processing in U2OS APP-C99-tGFP cells; assay type: cell-based; conditions: 6 h
Procedure: PC12 and HEK293T cells were obtained from LGC Promochem GmbH (Teddington, UK) and cultured under the conditions specified by the manufacturer. NIH3T3 cells were stably transfected with human TrkB plasmid. PC12 cells were grown in DMEM medium (11965084, Gibco, Grand Island, NY, USA) containing 10% Horse Serum (16050122, Gibco, Grand Island, NY, USA), 5% Fetal Bovine Serum (10270106, Gibco, Grand Island, NY, USA), 100 units/mL Penicillin and 0.1 mg/mL Streptomycin (15140122, Gibco, Grand Island, NY, USA) at 5% CO2 and 37 °C. Cells were used between passages 5–20. HEK293T and NIH3T3 cells were grown in the same medium as PC12 cells supplemented with 10% Fetal Bovine Serum and lacking Horse Serum. For transient transfection of HEK293T cells, lipofectamine was used and cells were transfected with human p75^NTR and Traf6 plasmids. To determine the intracellular activity of endogenous secretases, we tagged (tGFP) a truncated mutant (Tm) of APP containing the original amino acids sequence from M516 to N773. This Tm conserves the secretases cleavage sites, clathrin binding site, tau protein binding site, collagen binding site and some glycosylation sites critical for protein localization and intracellular trafficking. The cDNA of the TmAPP gene was amplified by PCR and subcloned into pturbo-GFP vector. The construction was transfected into U2OS cells (ATCC Cat Number HTB-96) using Lipofectamine LTX (Thermo Fisher Scientific, Waltham, MA, USA). After 48 h, individual cells were plated in MTP96 plates using F.SIGHT (CYTENA GmbH, Freiburg, Germany), and cultured in complete medium containing 250 μg/mL G418 for selection. The selection medium was changed every two to three days. The cells were allowed to grow for 3 to 4 weeks, after which clones were isolated for further analysis. Resistant clones were checked by RT-PCR and epifluorescence microscopy.
The Alzheimer’s Disease (AD) phenotype is partly attributed to the toxic effects caused by oligmeric Aβ, which results in reduced neuronal trophic support, caused by deregulation of neurotrophic signaling. It is therefore reasonable that a small molecule that can selectively activate TrkA signaling and promote neuronal survival could alleviate the detrimental effects caused by toxic Aβ oligomers, especially during the early phases of the disease or modulate APP misprocessing and therefore reduce the production of the toxic Aβ. The U2OS stably expressing APP-C99-tGFP cell line was used in order to monitor γ-secretase activity, the process responsible for Aβ production from APP. The assay achieves this by measuring the levels of fluorescent APP-C99 construct produced by β-secretase activity. When γ-secretase is active, the construct is cleaved, leading to Aβ production. […] Therefore, higher fluorescence levels correspond to decreased γ-secretase activity and Aβ aggregate formation by extension. […] In addition, in order to investigate whether ENT-A013 can protect cells against Aβ-induced toxicity we isolated neurons from the hippocampus of E17.5 mouse embryos, a brain area that is heavily affected in AD. Neurons were left in culture for 16–18 DIV and then were treated with oligomeric Aβ and ENT-A013 for 48 h. Subsequently, cells were fixed and cell death was assessed using TUNEL assay.
(A,B) Primary hippocampal neurons were treated for 48 h with oligomeric Aβ in the presence of ENT-A013 and TUNEL assay was used to quantify cell death. Representative images from 3 independent experiments. Data are shown as ±SEM. One-way ANOVA, Tukey’s Test correction: ** p < 0.01; *** p < 0.001. (C) Aggregate formation on untreated cells, treated with DAPT inhibitor of γ-secretase or with compound ENT-A013. […] Aggregate formation was quantified with a BD Pathway 855 High-Content Bioimager and Attonvision software.

T1 sequence (P35739 33-799): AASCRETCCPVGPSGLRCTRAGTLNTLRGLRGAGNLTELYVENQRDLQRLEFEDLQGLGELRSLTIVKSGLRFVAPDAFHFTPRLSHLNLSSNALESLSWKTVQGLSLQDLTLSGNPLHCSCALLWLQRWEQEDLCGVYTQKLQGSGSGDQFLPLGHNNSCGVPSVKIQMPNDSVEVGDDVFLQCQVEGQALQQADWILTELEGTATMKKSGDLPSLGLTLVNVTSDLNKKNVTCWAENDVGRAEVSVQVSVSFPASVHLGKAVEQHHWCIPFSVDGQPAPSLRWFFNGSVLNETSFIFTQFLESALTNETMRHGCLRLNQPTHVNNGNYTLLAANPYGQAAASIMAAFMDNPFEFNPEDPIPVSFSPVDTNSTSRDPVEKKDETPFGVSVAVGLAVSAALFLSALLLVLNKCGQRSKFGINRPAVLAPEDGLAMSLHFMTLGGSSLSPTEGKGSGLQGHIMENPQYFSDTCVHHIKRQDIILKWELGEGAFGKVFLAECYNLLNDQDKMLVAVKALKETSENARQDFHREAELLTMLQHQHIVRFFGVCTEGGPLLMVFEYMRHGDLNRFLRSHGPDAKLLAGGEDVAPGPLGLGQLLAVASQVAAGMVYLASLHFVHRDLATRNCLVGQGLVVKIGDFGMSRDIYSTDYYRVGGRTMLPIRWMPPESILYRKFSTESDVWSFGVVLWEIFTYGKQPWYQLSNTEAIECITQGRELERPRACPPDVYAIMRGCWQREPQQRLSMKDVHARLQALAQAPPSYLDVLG

CC12CCC(O)CC1=CCC1C2CCC2(C)C1CCC21CC1C=CBr [ENT-A013, (2′R,3S,17S)-2′-(2-Bromovinyl)-5-Androstene-17,1′-Cyclopropan-3-ol]
time TrkA phosphorylation is sustained after treatment ([1]; PC12 cells, 10, 30 or 60′ treatment): up to 1 hr | TrkA phosphorylation ([1]; PC12 cells, compound 500 nM or NGF 100 ng/mL, 30′): 2.05 ± 0.21 % of control FC | increase in APP spot levels compared to DAPT ([2]; 10 μM): 166.3% | increase in APP spot levels compared to DAPT ([2]; 30 μM): 246.4% | increase in APP spot levels compared to DAPT ([2]; 100 μM): 243.9% | increase in APP spot levels compared to DAPT ([2]; 300 μM): 239.9% | IC50 ([2]; Homo sapiens, U2OS, 100 nM to 300 μM, read-out: IC50 (γ-secretase activity, aggregate formation)): 93 µM
